Source: US4275057A (The United States of America as represented by the …, priority 1980, dated 1981)

Columns and labels:
adenosine deaminase = settings: qualitative statement; cited from earlier work
[1] = target: T1, Mouse kidney cytidine deaminase (Mus musculus, UniProt P56389); assay: Cytidine deaminase inhibition, mouse kidney enzyme; assay type: biochemical
T1 construct: isolated and partially purified from mouse kidney acetone powder; tissue Sigma Chemical Co; host or cells: mouse kidney (acetone powder, buffer extract, ammonium sulfate fractionation)
T1 sequence (P56389 whole entry): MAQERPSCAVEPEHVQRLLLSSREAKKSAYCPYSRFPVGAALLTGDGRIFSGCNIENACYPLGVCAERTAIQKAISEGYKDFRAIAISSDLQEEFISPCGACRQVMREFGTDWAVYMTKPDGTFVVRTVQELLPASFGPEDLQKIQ

[2] = target: T2, Cytidine deaminase from human liver (Homo sapiens, UniProt P32320); assay: Cytidine deaminase inhibition, human liver enzyme; assay type: biochemical
T2 construct: Cytidine deaminase from human liver was isolated; from tissue; host or cells: human liver
T2 sequence (P32320 whole entry): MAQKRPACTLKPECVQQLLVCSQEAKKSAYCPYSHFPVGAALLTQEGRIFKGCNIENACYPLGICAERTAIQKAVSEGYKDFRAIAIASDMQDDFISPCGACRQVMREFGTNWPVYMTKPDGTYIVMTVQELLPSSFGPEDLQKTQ

Compound | inhibition of adenosine deaminase (in words) (adenosine deaminase) | Ki [1] | Ki [2]
OC[C@H]1O[C@@H](n2cnc3c2N=CNC[C@H]3O)C[C@@H]1O [2'-deoxycoformycin] | very potent adenosine deaminase inhibitor | – | –
O=C1CCNC(=O)N([C@@H]2O[C@H](CO)[C@@H](O)[C@H]2O)C1 [Compound 8b, 3-(β-D-Ribofuranosyl)-5-keto-perhydro-1,3-diazepin-2-one] | – | 10 µM | 10 µM
O=C1NCCCCN1C1C[C@H](O)[C@@H](CO)O1 (stereo partly drawn) [Compound 3d, 1-(2-deoxy-D-erythro-pentofuranosyl)-perhydro-1,3-diazepin-2-one] | – | 0.2 µM | –
